Tests used:
Thermal properties (Td) = assay type: physicochemical; settings: thermal property of the PAG
[1] = Optical properties: absorptivity at 248 nm in acetonitrile; assay type: physicochemical; settings: Measured in acetonitrile

Compound	Td (Thermal properties (Td))	ε248 [1]
O=S(=O)(O)C(F)(F)C(F)(F)CCCl	205 °C	
O=S(=O)(O)C(F)(F)C(F)(F)Oc1ccccc1	190 °C	6015 cm^2 · mol^-1
O=S(=O)(O)C(F)(F)C(F)(F)OC(F)(F)C(F)(F)C1CC2CCC1C2 (centres unmarked)	164 °C	5220 cm^2 · mol^-1
O=C1CCC(CC(F)(F)C(F)(F)OC(F)(F)C(F)(F)S(=O)(=O)O)O1 (centres unmarked)	165 °C	5400 cm^2 · mol^-1
O=S(=O)(O)C(F)(F)C(F)(F)C(F)(F)C(F)(F)F		4200 cm^2 · mol^-1
